In brackets after ≈: the same amount, converted by molar mass. Like-named read-outs stand apart in the source and are kept apart here.
Key:
[1] = tested on: CYP1A2, 2A6, 2B6, 2C8, 2C9, 2C19, 2D6, 3A4; UGT1A1, 1A3, 1A4, 1A6, 1A9, 2B4, 2B7, 2B15, 2B17; P-gp; BCRP; BSEP; OCT1, OCT2; OATP1B1, OATP1B3; MATE 1, MATE 2-K …; experiment: Inhibition of enzymes and transporters; format: in vitro ADME
[2] = tested on: laboratory strains of HIV-1 (subtype B); experiment: Antiviral activity in PBMCs and 293 cells; format: cell-based; settings: Human immunodeficiency virus 1, HEK293, n=4 strains
[3] = target: T1, OAT3 (Homo sapiens, UniProt Q8TCC7); experiment: In vitro transporter inhibition, OAT3; format: in vitro ADME
T1 sequence (Q8TCC7 1-542): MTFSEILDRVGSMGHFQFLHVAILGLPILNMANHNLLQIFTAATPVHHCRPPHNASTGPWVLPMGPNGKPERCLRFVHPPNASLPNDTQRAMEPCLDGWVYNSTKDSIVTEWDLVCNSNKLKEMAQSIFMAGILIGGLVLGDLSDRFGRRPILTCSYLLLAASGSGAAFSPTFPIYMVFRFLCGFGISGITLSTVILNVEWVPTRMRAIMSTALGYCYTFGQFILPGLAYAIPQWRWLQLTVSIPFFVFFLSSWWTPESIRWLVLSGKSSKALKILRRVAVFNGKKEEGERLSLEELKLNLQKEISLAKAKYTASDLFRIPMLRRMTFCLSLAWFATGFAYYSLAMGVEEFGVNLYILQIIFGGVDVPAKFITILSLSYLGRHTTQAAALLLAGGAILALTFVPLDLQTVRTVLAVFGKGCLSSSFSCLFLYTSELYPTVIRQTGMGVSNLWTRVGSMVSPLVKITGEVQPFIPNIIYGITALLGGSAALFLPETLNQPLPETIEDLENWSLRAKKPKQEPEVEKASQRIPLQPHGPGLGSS
Source text: However, based on PBPK modeling, no interaction with OAT substrates is expected at clinically relevant concentrations.

[4] = QT cross-over trial of oral cabotegravir in healthy subjects; format: in vivo, human; settings: oral cabotegravir 150 mg every 12 hours
[5] = Reproduction and development studies in rats
[6] = in vivo
Source text: The observed hepatocellular findings in mice may be rodent specific.

[7] = tested on: clinical HIV-2 isolates; experiment: Antiviral activity against clinical HIV-2 isolates; format: cell-based; settings: Human immunodeficiency virus 2, n=4
[8] = tested on: OATP1B1, OATP1B3, OCT1, P-gp, BCRP; experiment: In vitro transporter substrate assessment; format: in vitro ADME
[9] = Multiple-dose pharmacokinetics after monthly IM injections, population PK post-hoc estimates FLAIR and ATLAS; format: in vivo, human; settings: 400-mg monthly IM injection
[10] = Lactating rats, exposure of pups through milk; format: in vivo, rat; settings: administered to lactating rats
Source text: The Centers for Disease Control and Prevention recommends that HIV-1-infected mothers in the United States not breastfeed their infants to avoid risking postnatal transmission of HIV-1 infection. It is not known if the components of the Combination are present in human breast milk, affect human milk production, or have effects on the breastfed infant. […] Animal Data: Cabotegravir: […] Rilpivirine: […]

[11] = Pharmacokinetic properties of the components of the Combination (Table 6); set-up: species or system human; settings: in vivo
[12] = target: HIV-1 integrase (Human immunodeficiency virus type 1 group M subtype B, UniProt P04585)
[13] = oral administration once daily; cited from earlier work
[14] = tested on: recombinant HIV-1 strain NL432 viruses; format: cell-based
[15] = Genotoxicity: bacterial reverse mutation assay, mouse lymphoma assay, in vivo rodent micronucleus assay
[16] = tested on: CYP1A2, CYP2B6, CYP3A4; experiment: In vitro CYP induction; format: in vitro ADME
[17] = Fertility studies in rats; format: in vivo, rat; settings: oral, 1,000 mg/kg/day up to 26 weeks, male and female rats
[18] = tested on: HIV-1 clinical isolates; experiment: Antiviral activity in PBMCs against clinical isolates; format: cell-based; settings: Human immunodeficiency virus 1, PBMC
[19] = Binding to human plasma proteins; format: in vitro ADME; settings: read-out: % Bound to human plasma proteins (converted)
[20] = Protein-adjusted IC90; format: cell-based; settings: read-out: protein-adjusted IC90 (PA-IC90)
Source text: Mar. 4-7, 2019, Seattle, WA.).

[21] = Pharmacokinetics in specific populations (renal, hepatic impairment, UGT1A1 genotype); format: in vivo, human; settings: for pharmacokinetic differences vs matching healthy subjects: oral cabotegravir
Source text: No dosage adjustment is necessary for patients with mild to severe renal impairment (not on dialysis).
No dosage adjustment is necessary for patients with mild to moderate hepatic impairment (Child-Pugh Score A or B).
No dose adjustment is required in subjects with UGT1A1 polymorphisms.

C[C@H]1CO[C@@H]2Cn3cc(C(=O)NCc4ccc(F)cc4F)c(=O)c(O)c3C(=O)N12 [Cabotegravir, (3S,11aR)-N-[(2,4-difluorophenyl)methyl]-6-hydroxy-3-methyl-5,7-dioxo-2,3,5,7,11,11a-hexahydro[1,3]oxazolo[3,2-a]pyrido[1,2-d]pyrazine-8-carboxamide]
inhibition of listed CYP, UGT enzymes and transporters [1]: not a clinically relevant inhibitor
EC50 [2]: 0.22 to 1.7 nM
IC50 [3]: 410 nM
QTc interval over 24 hours post dose [4]: did not prolong the QTc interval
maximum time-matched mean QTc change (QTcF), baseline and placebo adjusted ([4]; 3 doses): 2.62 ms
effect on parturition, prenatal and postnatal development study ([5]; oral 1,000 mg/kg/day): delayed the onset of parturition
embryo-fetal development in rats ([5]; oral 1,000 mg/kg/day, in the presence of maternal toxicity): alterations in fetal growth (decreased body weights)
placental transfer ([5]; pregnant rats): crosses the placenta
carcinogenicity ([6]; mouse): not carcinogenic
carcinogenicity ([6]; rat): not carcinogenic
EC50 ([7]; read-out: EC50 range): 0.1 to 0.14 nM
EC50 ([7]; read-out: median EC50): 0.12 nM
substrate of OATP1B1, OATP1B3, or OCT1 [8]: not a substrate
substrate of P-gp and BCRP [8]: is a substrate
Ctrough, geometric mean [9]: 2900 ng/mL
AUC ([9]; human, in vivo, read-out: AUCtau, geometric mean): 2460 µg·h/mL
Cmax ([9]; human, in vivo, read-out: Cmax, geometric mean): 4200 ng/mL
presence in milk [10]: present in milk
Tmax ([11]; human, im, intramuscular injection, read-out: Tmax, median (converted)): 168 h
half-life ([11]; human, im, intramuscular injection, read-out: t1/2 (absorption rate limited), mean): 941 to 1930 h
Major route of elimination [11]: Metabolism
Metabolic pathways [11]: UGT1A1
Metabolic pathways ([11]; minor pathway): UGT1A9 (minor)
IC50 [12]: 3 nM
half-life [13]: 40 h
activity against viruses with NNRTI substitutions K103N or Y188L, or NRTI substitutions M184V, D67N/K70R/T215Y, or V751/F77L/F116Y/Q151M [14]: active
reduction in susceptibility ([14]; E138K+Q148K): 81 fold
reduction in susceptibility ([14]; Q148R+N155H): 61 fold
genotoxicity [15]: not genotoxic
induction of CYP1A2, CYP2B6, or CYP3A4 [16]: did not induce
effects on reproductive organs, spermatogenesis, mating or fertility [17]: did not cause adverse effects
EC50 ([18]; read-out: EC50 range, panel of 24 HIV-1 clinical isolates, PBMCs): 0.02 to 1.06 nM
EC50 ([18]; read-out: EC50 range, subtype B clinical isolates, n=3): 0.02 to 0.5 nM
EC50 ([18]; read-out: median EC50, panel of 24 HIV-1 clinical isolates (group M subtypes A-G, group O), PBMCs): 0.19 nM
EC50 ([18]; read-out: median EC50, subtype B clinical isolates, n=3): 0.05 nM
fraction unbound [19]: < 0.002
IC90 [20]: 0.166 µg/mL (≈ 0.41 µM)
increase in mean steady-state AUC, Cmax, and Ctau vs normal UGT1A1 metabolism ([21]; UGT1A1 genotypes conferring poor metabolism, long-acting injection): 1.2 fold
pharmacokinetic differences vs matching healthy subjects ([21]; moderate hepatic impairment): No clinically important pharmacokinetic differences
pharmacokinetic differences vs matching healthy subjects ([21]; severe renal impairment (CrCL<30 mL/min, not on dialysis)): No clinically important pharmacokinetic differences

Source: patent US12636285B2 (ViiV Healthcare Company, priority 2019, dated 2026)
